From ChEMBL document CHEMBL4138047, “Recent advancements in the discovery of protein-protein interaction inhibitors of replication protein A” (Medchemcomm, 2017)

Columns and labels:
[1] = target: T1, Replication protein A 70 kDa DNA-binding subunit (Homo sapiens, UniProt P27694); test: Binding affinity to RPA70 (unknown origin) by FITC-labeled probe based fluorescence polarization anisotropy
[2] = target: T1, Replication protein A 70 kDa DNA-binding subunit; test: Binding affinity to human recombinant RPA70 expressed in Escherichia coli BL21 using FPA by tryptophan fluorescence quenching assay
[3] = target: T1, Replication protein A 70 kDa DNA-binding subunit; test: Inhibition of GST-tagged X-rhodamine-labelled p53TAD2 binding to human recombinant RPA70 expressed in Escherichia coli BL21 by fluorescence anisotropy competition assay
[4] = Binding affinity to human recombinant RPA70 R41E/R43E mutant expressed in Escherichia coli BL21 using FPA by tryptophan fluorescence quenching assay
[5] = Apparent permeability in human Caco2 cells at 5 uM incubated for 120 mins by LC-MS/MS method; format: ADME, cell-based; settings: Caco-2
[6] = Protein binding in human plasma at 1 ug/ml after 4 hrs by LC-MS/MS method; format: ADME, cell-free; settings: read-out: PPB (converted)

T1 sequence (P27694 whole entry): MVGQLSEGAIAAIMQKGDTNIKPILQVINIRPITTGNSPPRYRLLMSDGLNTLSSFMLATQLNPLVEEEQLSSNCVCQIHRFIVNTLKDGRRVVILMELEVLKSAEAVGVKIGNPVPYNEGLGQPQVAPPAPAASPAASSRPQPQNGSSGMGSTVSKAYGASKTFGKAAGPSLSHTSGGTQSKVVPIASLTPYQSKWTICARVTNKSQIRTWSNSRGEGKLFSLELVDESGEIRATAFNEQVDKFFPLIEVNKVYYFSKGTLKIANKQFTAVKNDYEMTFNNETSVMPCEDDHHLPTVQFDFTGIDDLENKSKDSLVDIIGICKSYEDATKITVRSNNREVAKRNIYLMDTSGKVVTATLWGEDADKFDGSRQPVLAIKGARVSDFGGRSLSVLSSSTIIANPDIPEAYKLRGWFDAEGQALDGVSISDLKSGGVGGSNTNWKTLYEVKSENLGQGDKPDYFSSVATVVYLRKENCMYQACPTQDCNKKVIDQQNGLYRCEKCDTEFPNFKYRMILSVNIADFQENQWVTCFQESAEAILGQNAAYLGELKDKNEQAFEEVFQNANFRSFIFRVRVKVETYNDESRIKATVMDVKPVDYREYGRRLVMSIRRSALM

Cc1ccc(C(=O)Nc2ccccc2C(=O)O)cc1S(=O)(=O)Nc1ccc(Br)cc1
Kd [1]: 30 µM

CC(C)C1=C[C@@]23CC[C@@H]4[C@](C)(CCC[C@@]4(C)C(=O)O)[C@H]2C[C@@H]1[C@@H](C(=O)O)[C@@H]3C(=O)O
Kd [2]: 29 µM
Kd [3]: 9 µM
Kd [4]: 230 µM

Cc1ccc(C(=O)Nc2cc(Br)ccc2C(=O)O)cc1S(=O)(=O)Nc1ccc(Cl)c(Cl)c1
Papp at 2 h, 5 µM [5]: 29.2 ×10⁻⁶ cm/s
fraction unbound at 4 h, 1 ug/ml [6]: 0.002
Kd [1]: 0.81 µM
